From US6962930B1, “Compounds, compositions and method suitable for amelioration of withdrawal syndromes and withdrawal-induced brain damage” (Lohocla Research Corporation, priority 1997, dated 2005) come the findings set out here.

Molecules are shown by their SMILES.

Assay [1] deals with T1, strychnine-insensitive glycine binding site on the NMDA receptor (Rattus norvegicus, UniProt P35439).
T1 construct: from tissue; host or cells: rat cerebral cortex, crude synaptic (buffy coat) membranes
In words: [3H]5,7-DCKA binding to rat cortical membranes. The following applies: 20 nM [3H]5,7-DCKA. As for the experimental part: Male Sprague-Dawley rats were killed, their brains removed, and their cerebral cortices dissected and binding of [^3H]5,7-dichlorokynurenate ([^3H]5,7-DCKA) assayed. [^3H]5,7-DCKA binding assays were performed in crude synaptic membranes prepared by a modification of the method of Jones, et al., J. Pharmacol. Methods, 21 161–168 (1989) the relevant disclosures of which are incorporated herein by reference. The pelleted “buffy coat”fraction was obtained by centrifugation and frozen at about −80° C. for at least 18 hours. On the day that the binding assays were performed, the pelleted membranes were resuspended in 50 mM HEPES-KOH buffer (pH 7.8) containing 0.08% TRITON® X-100. After stirring for about 30 min at about 4° C., the membranes were pelleted by recentrifugation and then washed twice by resuspension in buffer and centrifugation.
Binding assays were performed in 0.5 ml volume using 150–200 μg of tissue, 20 nM [^3H]5,7-DCKA and 3–300 μM DCUKA or MeO-DCUKA or 1–100 μM DCUK-OMe (all concentrations are final concentrations in 0.6% dimethyl sulfoxide (DMSO)). Incubations were performed for about 45 min at about 4° C. followed by termination by centrifugation. Bound radioactivity was quantitated by liquid scintillation spectroscopy. Non-specific binding was defined with 1 mM glycine.

In assay [2] the target is voltage-sensitive sodium channels. The assay can be described thus: [3H]BTX binding to rat cortical synaptosomes. The following applies: non-depolarizing conditions, none = no displacement at 100 μM, read-out: IC50 (μM) [3H]BTX binding.
The target of assay [3] is T2, NMDA receptor ion channel (Rattus norvegicus, UniProt P35439).
T2 construct: from tissue; host or cells: rat cerebral cortex, crude synaptic (buffy coat) membranes
In words: [3H]dizocilpine binding to rat cortical membranes. The following applies: no exogenous glycine; 100 or 300 μM DCUKA, 30 or 100 μM DCUK-OMe; attenuated by 1 μM glycine. As for the experimental part:
[^3H]Dizocilpine (MK-801) binding assays were performed in a volume of 1 ml containing 100–150 μg of tissue, 5 nM [^3H]dizocilpine, 10 μM L-glutamate, 30 μM MgSO4, and 100 or 300 μM DCUKA or 30 or 100 μM DCUK-OMe, in 10 mM HEPES-KOH buffer (pH 7.4 at 23° C.). Incubations were for 30 minutes at room temperature. The reaction mixtures were filtered over GF/B filters presoaked in 0.1% polyethyleneimine. Bound radioactivity was quantitated by liquid scintillation spectroscopy. Non-specific binding was defined with 20 μM dizocilpine. Under these conditions, [^3H]dizocilpine binding can be used as a measure of the activation of the NMDA receptor ion channel by glycine. See, for example, Wong, E. H. F., et al.,“ GLYCINE MODULATES [^3H]MK-801BINDING TO THE NMDA RECEPTOR IN RAT BRAIN.” Eur. J. Pharmacol., 142 487–488 (1987).
The results obtained are plotted in FIG. 2 where open bars indicate no glycine added and hatched bars indicate 1 μM glycine added to the incubation. Data were statistically analyzed by 2-way analysis of variance (ANOVA) followed by Tukey test. In FIG. 2, * denotes P<0.05 compared to the zero concentration of DCUKA or DCUK-OMe within a given glycine condition, while ** denotes P<0.05 compared to the 0 glycine condition at a given concentration of DCUKA or DCUK-OMe. […]

Another assay addresses T3, RSM (μl) sodium channels (Rattus norvegicus, UniProt P15390).
T3 construct: expressed in transfected cells
The assay can be described thus: Sodium currents, whole cell patch clamp in CHO cells. The format is cell-based. The following applies: held at −100 mV, successive depolarizations. As for the experimental part: Chinese hamster ovary (CHO) cells stably expressing RSM (μl) sodium channels were studied using the patch clamp whole cell recording technique. CHO cells were grown to confluence in Dulbecco's Modified Eagle's Medium fortified with 15% FBS, 100 U/ml penicillin and 100 μg/ml streptomycin in a humidified incubator at 37° C. and 5% CO2, with medium changed every 2–3 days. Transfections with the plasmid pZemμ1–2 were performed using the calcium phosphate coprecipitation method. After 24 hr of incubation with DNA, standard culturing conditions were resumed. After 3 days, stably transfected cells were selected with 400 μg/ml geneticin. Transfected cells were grown to confluence and then plated on 35 mm culture dishes for 24–96 hr before the experiment.
An 8900 Dagan patch clamp amplifier with a 1 GΩ 8920 Dagan headstage was used in combination with a Nikon Diaphot inverted microscope. Micromanipulators were used to place the electrode onto the cell. Electrodes were pulled to a resistance of […]. […] Peak currents were determined from these traces. DCUKA dissolved in 0.4% DMSO was added directly to the bath following seal formation and the data are expressed as the % of the initial peak current response obtained before drug addition. […]

A word on the IC50: it is the concentration needed to halve the response being measured.

T3 sequence (P15390 whole entry): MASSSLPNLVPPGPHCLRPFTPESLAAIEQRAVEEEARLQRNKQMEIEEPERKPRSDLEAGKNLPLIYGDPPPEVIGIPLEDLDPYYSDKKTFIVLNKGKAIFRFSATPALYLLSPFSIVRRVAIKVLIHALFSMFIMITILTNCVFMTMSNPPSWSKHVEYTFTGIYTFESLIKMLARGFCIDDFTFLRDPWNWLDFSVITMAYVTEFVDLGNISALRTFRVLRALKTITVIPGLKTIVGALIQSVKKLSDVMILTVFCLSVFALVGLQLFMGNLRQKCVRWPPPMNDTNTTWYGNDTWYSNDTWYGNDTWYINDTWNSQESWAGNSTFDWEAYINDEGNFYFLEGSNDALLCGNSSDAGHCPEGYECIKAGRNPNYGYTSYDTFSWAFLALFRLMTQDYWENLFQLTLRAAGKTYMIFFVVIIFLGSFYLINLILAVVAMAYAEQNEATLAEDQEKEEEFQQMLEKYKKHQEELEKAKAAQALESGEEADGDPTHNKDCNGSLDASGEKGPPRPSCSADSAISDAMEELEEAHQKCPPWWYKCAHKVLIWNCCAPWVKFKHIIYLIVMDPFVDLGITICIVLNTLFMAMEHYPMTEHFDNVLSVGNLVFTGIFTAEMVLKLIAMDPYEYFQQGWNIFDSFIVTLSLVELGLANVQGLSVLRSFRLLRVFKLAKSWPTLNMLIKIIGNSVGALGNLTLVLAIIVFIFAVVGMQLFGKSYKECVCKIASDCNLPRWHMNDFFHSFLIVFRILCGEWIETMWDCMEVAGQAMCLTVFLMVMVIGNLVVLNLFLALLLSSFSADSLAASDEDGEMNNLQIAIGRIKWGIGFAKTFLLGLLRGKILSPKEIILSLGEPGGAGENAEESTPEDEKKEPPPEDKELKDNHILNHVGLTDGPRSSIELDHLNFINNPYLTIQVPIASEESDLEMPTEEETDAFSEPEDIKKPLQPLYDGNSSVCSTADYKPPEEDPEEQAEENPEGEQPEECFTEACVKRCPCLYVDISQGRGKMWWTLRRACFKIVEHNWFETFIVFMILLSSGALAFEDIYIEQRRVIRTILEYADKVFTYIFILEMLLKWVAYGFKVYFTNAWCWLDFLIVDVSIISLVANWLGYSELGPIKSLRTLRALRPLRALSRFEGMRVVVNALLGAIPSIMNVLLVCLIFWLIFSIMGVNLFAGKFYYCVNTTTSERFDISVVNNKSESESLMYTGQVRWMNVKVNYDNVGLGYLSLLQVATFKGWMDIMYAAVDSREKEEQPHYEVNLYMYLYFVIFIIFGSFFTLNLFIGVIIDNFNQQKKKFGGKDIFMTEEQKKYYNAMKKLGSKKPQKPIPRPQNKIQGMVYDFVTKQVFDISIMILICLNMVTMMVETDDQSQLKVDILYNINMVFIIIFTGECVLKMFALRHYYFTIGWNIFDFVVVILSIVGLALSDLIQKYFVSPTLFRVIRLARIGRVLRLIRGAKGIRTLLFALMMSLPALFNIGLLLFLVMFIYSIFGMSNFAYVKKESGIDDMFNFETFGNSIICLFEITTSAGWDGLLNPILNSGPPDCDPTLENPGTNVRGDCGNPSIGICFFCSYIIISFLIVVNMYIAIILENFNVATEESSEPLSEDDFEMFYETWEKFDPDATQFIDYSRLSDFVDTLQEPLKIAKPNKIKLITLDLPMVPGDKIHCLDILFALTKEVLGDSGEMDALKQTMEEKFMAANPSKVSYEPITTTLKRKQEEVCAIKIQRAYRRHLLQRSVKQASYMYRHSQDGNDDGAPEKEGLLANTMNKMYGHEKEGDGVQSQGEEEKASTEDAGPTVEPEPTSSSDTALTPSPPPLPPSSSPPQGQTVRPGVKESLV

As to `COC(=O)c1cc(NC(=O)N(c2ccccc2)c2ccccc2)c2c(Cl)cc(Cl)cc2n1` [DCUK-OMe, (N,N-diphenyl)-4-ureido-5,7-dichloro-2-carboxy-quinoline methyl ester], the figures for the IC50 in assay [1] and in assay [2] were 5 µM and 25 µM, respectively. In assay [3], the “effect on [3H]dizocilpine binding” value was “concentration-related decrease in [^3H]dizocilpine binding”.
As for `O=C(O)c1cc(NC(=O)N(c2ccccc2)c2ccccc2)c2c(Cl)cc(Cl)cc2n1` [DCUKA, (N,N-diphenyl)-4-ureido-5,7-dichloro-2-carboxy-quinoline], the IC50 was 22 µM in assay [1] and 76 µM in assay [2]. In assay [3], the “effect on [3H]dizocilpine binding” value was “concentration-related decrease in [^3H]dizocilpine binding”. The “effect on sodium current through VSNaCs” value on RSM (μl) sodium channels is “use- and voltage-dependent inhibitor of VSNaCs”.
